Data: ChEMBL document CHEMBL3112465 (Eur J Med Chem, 2014)
Active and inactive are the calls of the source. The calls are words filed in the database; no cut-off is given here.

Legend:
[1] = Plasma concentration in Wistar rat lambda carrageenan-induced pleurisy model at 20 mg/kg, ip pretreated for 30 mins followed by lambda carrageenan-challenge measured after 4 hrs by SPE-HPLC analysis; assay type: ADME, organism-based; parameters: dose 20 mg/kg, route intraperitoneal
[2] = Plasma concentration in Wistar rat lambda carrageenan-induced pleurisy model at 10 mg/kg, ip pretreated for 30 mins followed by lambda carrageenan-challenge measured after 4 hrs by SPE-HPLC analysis; assay type: ADME, organism-based; parameters: dose 10 mg/kg, route intraperitoneal
[3] = Plasma concentration in Wistar rat lambda carrageenan-induced pleurisy model at 5 mg/kg, ip pretreated for 30 mins followed by lambda carrageenan-challenge measured after 4 hrs by SPE-HPLC analysis; assay type: ADME, organism-based; parameters: dose 5 mg/kg, route intraperitoneal
[4] = tested on: Rattus norvegicus; assay: Antiinflammatory activity in Wistar rat lambda carrageenan-induced pleurisy model assessed as decrease in number of leukocytes in pleural space at 20 mg/kg, ip pretreated for 30 mins followed by lambda carrageenan-challenge measured after 4 hrs relative to control; assay type: functional; parameters: scale not given: the % may be the effect or the level left
[5] = tested on: Rattus norvegicus; assay: Antiinflammatory activity in Wistar rat lambda carrageenan-induced pleurisy model assessed as decrease in number of leukocytes in pleural space at 10 mg/kg, ip pretreated for 30 mins followed by lambda carrageenan-challenge measured after 4 hrs relative to control; assay type: functional; parameters: scale not given: the % may be the effect or the level left
[6] = tested on: Rattus norvegicus; assay: Antiinflammatory activity in Wistar rat lambda carrageenan-induced pleurisy model assessed as decrease in number of leukocytes in pleural space at 5 mg/kg, ip pretreated for 30 mins followed by lambda carrageenan-challenge measured after 4 hrs relative to control; assay type: functional; parameters: scale not given: the % may be the effect or the level left
[7] = tested on: Rattus norvegicus; assay: Antiinflammatory activity in Wistar rat lambda carrageenan-induced pleurisy model assessed as decrease in exudate volume at 20 mg/kg, ip pretreated for 30 mins followed by lambda carrageenan-challenge measured after 4 hrs relative to control; assay type: functional; conditions: route intraperitoneal
[8] = tested on: Rattus norvegicus; assay: Antiinflammatory activity in Wistar rat lambda carrageenan-induced pleurisy model assessed as decrease in exudate volume at 10 mg/kg, ip pretreated for 30 mins followed by lambda carrageenan-challenge measured after 4 hrs relative to control; assay type: functional; conditions: route intraperitoneal
[9] = tested on: Rattus norvegicus; assay: Antiinflammatory activity in Wistar rat lambda carrageenan-induced pleurisy model assessed as decrease in exudate volume at 5 mg/kg, ip pretreated for 30 mins followed by lambda carrageenan-challenge measured after 4 hrs relative to control; assay type: functional; conditions: route intraperitoneal
[10] = molecular target: T1, Prostaglandin G/H synthase 2 (Homo sapiens, UniProt P35354); parameters: species or system Blood
T1 sequence (P35354 whole entry): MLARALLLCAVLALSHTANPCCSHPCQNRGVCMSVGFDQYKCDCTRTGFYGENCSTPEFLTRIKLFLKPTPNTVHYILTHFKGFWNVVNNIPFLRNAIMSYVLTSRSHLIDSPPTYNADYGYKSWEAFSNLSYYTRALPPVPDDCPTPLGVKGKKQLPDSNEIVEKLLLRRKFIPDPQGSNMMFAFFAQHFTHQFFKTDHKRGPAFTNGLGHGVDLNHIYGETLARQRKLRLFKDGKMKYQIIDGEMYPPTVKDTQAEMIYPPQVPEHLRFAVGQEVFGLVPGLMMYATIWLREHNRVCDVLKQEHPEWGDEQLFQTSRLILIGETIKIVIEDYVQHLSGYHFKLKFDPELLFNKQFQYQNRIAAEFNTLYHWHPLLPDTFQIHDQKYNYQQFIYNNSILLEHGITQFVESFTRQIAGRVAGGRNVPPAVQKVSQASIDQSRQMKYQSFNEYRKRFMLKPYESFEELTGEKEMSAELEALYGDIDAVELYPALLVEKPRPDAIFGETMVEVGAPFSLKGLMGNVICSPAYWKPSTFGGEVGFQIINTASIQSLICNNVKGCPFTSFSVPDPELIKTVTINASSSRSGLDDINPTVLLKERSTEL

[11] = molecular target: Prostaglandin G/H synthase 1 (Homo sapiens, UniProt P23219); parameters: species or system Blood
[12] = Retention time of the compound by chromatographic analysis; assay type: physicochemical

Sequence of Prostaglandin G/H synthase 1 (P23219 whole entry): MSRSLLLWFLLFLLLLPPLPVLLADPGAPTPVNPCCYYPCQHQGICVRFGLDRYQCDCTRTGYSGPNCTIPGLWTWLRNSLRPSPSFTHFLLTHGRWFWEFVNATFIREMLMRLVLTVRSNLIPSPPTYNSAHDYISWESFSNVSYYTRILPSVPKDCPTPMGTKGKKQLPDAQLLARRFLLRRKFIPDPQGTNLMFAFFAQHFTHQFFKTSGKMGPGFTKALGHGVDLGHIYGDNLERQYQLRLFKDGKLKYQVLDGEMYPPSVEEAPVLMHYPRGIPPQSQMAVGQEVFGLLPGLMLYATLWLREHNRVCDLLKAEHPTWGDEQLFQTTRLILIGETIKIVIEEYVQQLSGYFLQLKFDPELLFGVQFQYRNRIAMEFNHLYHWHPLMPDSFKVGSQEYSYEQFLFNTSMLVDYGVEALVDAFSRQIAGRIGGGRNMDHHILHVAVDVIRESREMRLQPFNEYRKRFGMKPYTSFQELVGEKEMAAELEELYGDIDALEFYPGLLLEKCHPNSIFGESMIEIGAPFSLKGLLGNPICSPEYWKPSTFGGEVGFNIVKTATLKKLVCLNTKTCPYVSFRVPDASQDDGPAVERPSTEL

Structure (SMILES) | concentration at 4 h [1] [ng/mL] | concentration at 4 h [2] [ng/mL] | concentration at 4 h [3] [ng/mL] | Activity ([4]; route intraperitoneal) [%] | Activity ([5]; route intraperitoneal) [%] | IC50 [10] [µM] | IC50 [11] [µM] | other results
O=S(=O)(Nc1ccncc1Nc1ccc(F)c(Br)c1)C(F)(F)F | 59100 | 34100 | 11400 | 69.78 | 41.22 | 2.27 | 1.35 | Activity ([6]; route intraperitoneal): 11.13%; inhibition in vivo at 20 mg/kg [7]: 66.5%; inhibition in vivo at 10 mg/kg [8]: 42.6%; inhibition in vivo at 5 mg/kg [9]: 21.9%
CS(=O)(=O)Nc1ccncc1Nc1cccc(Cl)c1 | 1860 | 690 | 260 | – | – | – | – | Activity [4]: inactive; Activity [5]: inactive; Activity [6]: inactive
O=S(=O)(Nc1ccncc1Nc1ccccc1)C(F)(F)F | 3620 | 1540 | 720 | 51.7 | 34.83 | – | – | Activity ([6]; route intraperitoneal): 24.82%; inhibition in vivo at 20 mg/kg [7]: 72.2%; inhibition in vivo at 10 mg/kg [8]: 55.7%; inhibition in vivo at 5 mg/kg [9]: 25.4%
O=S(=O)(Nc1ccncc1Nc1ccc(F)c(Cl)c1)C(F)(F)F | 54600 | 30000 | 13000 | 64.71 | 48.23 | 1.57 | 1.74 | Activity ([6]; route intraperitoneal): 14.74%; inhibition in vivo at 20 mg/kg [7]: 73.5%; inhibition in vivo at 10 mg/kg [8]: 67.5%; inhibition in vivo at 5 mg/kg [9]: 36.6%
CS(=O)(=O)Nc1ccc([N+](=O)[O-])cc1Oc1ccccc1 [NIMESULIDE] | 75200 | 41300 | 17000 | 72.93 | 52.05 | – | – | Activity ([6]; route intraperitoneal): 23.08%; inhibition in vivo at 10 mg/kg [8]: 48.4%; inhibition in vivo at 5 mg/kg [9]: 31.1%
O=S(=O)(Nc1ccncc1Nc1ccccc1)C1CC1 | – | – | – | – | – | 35.1 | 3.61 | –
CS(=O)(=O)Nc1ccncc1Nc1cccc(F)c1 | – | – | – | – | – | 10 | 1.37 | –
Cc1ccc(Nc2cnccc2NS(=O)(=O)C(F)(F)F)cc1Br | 920 | 180 | 170 | 44.06 | 26.24 | 0.09 | 1.4 | Activity [6]: inactive; inhibition in vivo at 20 mg/kg [7]: 71%; inhibition in vivo at 10 mg/kg [8]: 57.1%; inhibition in vivo at 5 mg/kg [9]: 19.4%
Cc1ccc(-c2cc(C(F)(F)F)nn2-c2ccc(S(N)(=O)=O)cc2)cc1 [CELECOXIB] | 2680 | 1130 | 620 | 28.87 | 23.05 | – | – | Activity ([6]; route intraperitoneal): 24.02%; inhibition in vivo at 20 mg/kg [7]: 42.1%; inhibition in vivo at 10 mg/kg [8]: 27.3%; inhibition in vivo at 5 mg/kg [9]: 15.7%
O=S(=O)(Nc1ccncc1Nc1cccc(F)c1)C(F)(F)F | – | – | – | – | – | 0.24 | 0.44 | –
O=S(=O)(Nc1ccncc1Nc1ccc(Cl)cc1)C(F)(F)F | 27300 | 9490 | 4610 | 72.47 | 54.44 | – | – | Activity ([6]; route intraperitoneal): 44.15%
O=S(=O)(C1CC1)N(c1ccncc1Nc1ccccc1)S(=O)(=O)C1CC1 | – | – | – | – | – | 56.8 | 19.6 | –
N#Cc1cccc(Nc2cnccc2NS(=O)(=O)C(F)(F)F)c1 | – | – | – | – | – | 36.2 | 6.65 | –
Cc1ccc(Nc2cnccc2NS(=O)(=O)C(F)(F)F)cc1C | – | – | – | – | – | 0.55 | 0.71 | –
CCCC(C)C1(CC)C(=O)NC(=O)NC1=O (centres undefined) [PENTOBARBITAL] | – | – | – | – | – | – | – | Retention_time [12]: 11.71 min
O=S(=O)(Nc1ccncc1Nc1cccc(I)c1)C(F)(F)F | – | – | – | – | – | 0.26 | 1.93 | –
Cc1cc(Nc2cnccc2NS(=O)(=O)C(F)(F)F)ccc1Br | – | – | – | – | – | 0.3 | 2.32 | –
O=S(=O)(Nc1ccncc1Nc1ccc(F)cc1)C(F)(F)F | – | – | – | – | – | 0.3 | 0.27 | –
CS(=O)(=O)Nc1ccncc1Nc1ccc(F)cc1 | – | – | – | – | – | 20.7 | 2.09 | –
O=S(=O)(Nc1ccncc1Nc1cccc(Cl)c1)C(F)(F)F | 1400 | 680 | 560 | 16.41 | – | – | – | Activity [5]: inactive; Activity [6]: inactive
Cc1cc(C)cc(Nc2cnccc2NS(C)(=O)=O)c1 | – | – | – | – | – | > 100 | 14.9 | –
Cc1ccc(Nc2cnccc2NS(=O)(=O)C(F)(F)F)cc1Cl | – | – | – | – | – | 1.96 | 1.47 | –
O=S(=O)(Nc1ccncc1Nc1ccc(O)cc1)C(F)(F)F | – | – | – | – | – | > 100 | 18.1 | –
Cc1cc(C)cc(Nc2cnccc2NS(=O)(=O)C(F)(F)F)c1 | – | – | – | – | – | 1.04 | 4.11 | –
Cc1ccc(Nc2cnccc2NS(C)(=O)=O)cc1C | – | – | – | – | – | 30.7 | 3.28 | –
Cc1cccc(Nc2cnccc2NS(=O)(=O)C(F)(F)F)c1 | 410 | 200 | 100 | 50.18 | 24.98 | – | – | Activity ([6]; route intraperitoneal): 17.07%
O=S(=O)(Nc1ccncc1Nc1cccc(Br)c1)C(F)(F)F | 820 | 430 | 300 | 28.52 | 27.07 | – | – | Retention_time [12]: 13.65 min; Activity ([6]; route intraperitoneal): 27.1%
O=S(=O)(Nc1ccncc1Nc1ccc(O)c(Br)c1)C(F)(F)F | – | – | – | – | – | > 100 | 4.21 | Retention_time [12]: 10.34 min
